A value given as a limit tells only on which side of the number the result lay.

Assay [1] deals with Wnt-responsive promoter driving firefly luciferase in SW480 cells. In words: Wnt reporter (SP5 promoter-luciferase) screening assay in SW480 cells. Conditions: Homo sapiens, 24-40 h, top concentration ten micromolar. Type of assay: cell-based. An excerpt: Another screening assay for Wnt activity is described as follows. Reporter cell lines can be generated by stably transducing cells of cancer cell lines (e.g., colon cancer) with a lentiviral construct that include a Wnt-responsive promoter driving expression of the firefly luciferase gene.
Lentiviral constructs can be made in which the SP5 promoter, a promoter having eight TCF/LEF binding sites derived from the SP5 promoter, is linked upstream of the firefly luciferase gene. The lentiviral constructs can also include a hygromycin resistance gene as a selectable marker. The SP5 promoter construct can be used to transduce SW480 cells, a colon cancer cell line having a mutated APC gene that generates a truncated APC protein, leading to de-regulated accumulation of β-catenin.
Cultured SW480 cells bearing a reporter construct can be distributed at approximately 10,000 cells per well into 96 well or 384 well plates. Compounds from a small molecule compound library can then be added to the wells in half-log dilutions using a ten micromolar top concentration. A series of control wells for each cell type receive only buffer and compound solvent. Twenty-four to forty hours after the addition of compound, reporter activity for luciferase can be assayed, for example, by addition of the BrightGlo luminescence reagent (Promega) and the Victor3 plate reader (Perkin Elmer). Readings can be normalized to DMSO only treated cells, and normalized activities can then be used in the EC50 calculations.

The test system of assay [2] is primary human mesenchymal stem cells (hMSCs). In words: Tenocyte differentiation screening in hMSCs (SCXA-positive cells, 4 days). The class given is cell-based. Conditions: 96 h, fold change over DMSO. The text has this:
Representative compounds were screened using primary human mesenchymal stem cells (hMSCs) to determine their ability to induce tenocyte differentiation (process by which tendon is developed).
Primary human mesenchymal stem cells (hMSCs) were purchased from Lonza (Walkersville, Md.) and expanded in Mesenchymal Stem Cell Growth Media (Lonza). Cells between passage 3 and 6 were used for the experiments.
Cells were fixed using 4% formaldehyde (Electron Microscopy Sciences), and stained with anti-Sclerasis (anti-SCXA) antibodies (Abgent, San Diego, Calif.) [Webb S., et. al., Retinoic acid receptor signaling preserves tendon stem cell characteristics and prevents spontaneous differentiation in vitro, Stem Cell Research & Therapy 2016, 7:45] overnight at 4° C. […] Number of cells positive for SCXA in each well was quantified using the Celllnsight CX5. Data was normalized to the average of 12 DMSO treated wells on the same plate using Dotmatics Studies module. The normalized averages (fold change over DMSO) of 3 replicate wells for each compound concentration were calculated. Due to solubility limitations of some of the compounds, values for higher doses were manually corrected and curve fitting and EC50 determinations were performed using Dotmatics Studies.
EC50 for each compound is reported.

As for `O=C(Nc1cccc(-c2cccc(F)c2)c1)c1n[nH]c2ccc(-c3cccnc3)cc12` [compound 5, N-(3′-Fluorobiphenyl-3-yl)-5-(pyridin-3-yl)-1H-indazole-3-carboxamide], the results for the EC50 in assay [1] and in assay [2] were not below 10 µM and more than 100 µM, respectively.
In the case of `O=C(Nc1ccc(N2CCOCC2)nc1)c1n[nH]c2ccc(-c3cncc(CN4CCCCC4)c3)cc12` [compound 69, N-(6-Morpholinopyridin-3-yl)-5-(5-(piperidin-1-ylmethyl)pyridin-3-yl)-1H-indazole-3-carboxamide], the EC50 turned out to be 0.05 µM in assay [1] and 12.5 µM in assay [2].
Consider `CN(C)Cc1cncc(-c2ccc3[nH]nc(C(=O)Nc4cccnc4)c3c2)c1` [compound 40, 5-(5-((Dimethylamino)methyl)pyridin-3-yl)-N-(pyridin-3-yl)-1H-indazole-3-carboxamide], for which the EC50 amounted to 0.065 µM in assay [1] and 5.17 µM in assay [2].
For `CN1CCN(c2ccc(NC(=O)c3n[nH]c4ccc(-c5cccnc5)cc34)cn2)CC1` [compound 12, N-(6-(4-Methylpiperazin-1-yl)pyridin-3-yl)-5-(pyridin-3-yl)-1H-indazole-3-carboxamide] the same measures were 0.063 µM and 5 µM.
For `CN1CCN(Cc2ccc(NC(=O)c3n[nH]c4ccc(-c5cccnc5)cc34)cn2)CC1` [compound 15, N-(6-((4-Methylpiperazin-1-yl)methyl)pyridin-3-yl)-5-(pyridin-3-yl)-1H-indazole-3-carboxamide] the same measures were 0.037 µM and 4.8 µM.
For `O=C(Nc1cncc(Cc2ccccc2)c1)c1n[nH]c2ccc(-c3cncc(CN4CCCCC4)c3)cc12` [compound 80, N-(5-Benzylpyridin-3-yl)-5-(5-(piperidin-1-ylmethyl)pyridin-3-yl)-1H-indazole-3-carboxamide] the same measures were 0.158 µM and more than 100 µM.
Consider `O=C(Nc1ccc(CN2CCCC2)nc1)c1n[nH]c2ccc(-c3cccnc3)cc12` [compound 8, 5-(Pyridin-3-yl)-N-(6-(pyrrolidin-1-ylmethyl)pyridin-3-yl)-1H-indazole-3-carboxamide], for which the EC50 in assay [1] stood at 0.13 µM; in assay [2], 4.98 µM.
For `O=C(Nc1ccc2c(c1)OCCO2)c1n[nH]c2ccc(-c3cncc(CN4CCCCC4)c3)cc12` [compound 79, N-(2,3-Dihydrobenzo[b][1,4]dioxin-6-yl)-5-(5-(piperidin-1-ylmethyl)pyridin-3-yl)-1H-indazole-3-carboxamide] the same measures were 0.123 µM and more than 100 µM.
In the same order, the values of `O=C(Nc1cccnc1)c1n[nH]c2ccc(-c3cncc(NC(=O)C4CC4)c3)cc12` [compound 41, 5-(5-(Cyclopropanecarboxamido)pyridin-3-yl)-N-(pyridin-3-yl)-1H-indazole-3-carboxamide] are 0.067 µM and 8.12 µM.
Regarding `CCOc1ccc(NC(=O)c2n[nH]c3ccc(-c4cncc(CN5CCCC5)c4)cc23)cn1` [compound 44, N-(6-Ethoxypyridin-3-yl)-5-(5-(pyrrolidin-1-ylmethyl)pyridin-3-yl)-1H-indazole-3-carboxamide], the EC50 in assay [1] came to 0.158 µM; in assay [2], 25.1 µM.
In the same order, the values of `Cc1cc(NC(=O)c2n[nH]c3ccc(-c4cncc(CN5CCCCC5)c4)cc23)cnc1N1CCCC1` [compound 172, N-(5-Methyl-6-(pyrrolidin-1-yl)pyridin-3-yl)-5-(5-(piperidin-1-ylmethyl)pyridin-3-yl)-1H-indazole-3-carboxamide] are 0.06 µM and more than 100 µM.
In the case of `O=C(Nc1ccc(N2CCCC2)nc1)c1n[nH]c2ccc(-c3cncc(CN4CCCCC4)c3)cc12` [compound 71, 5-(5-(Piperidin-1-ylmethyl)pyridin-3-yl)-N-(6-(pyrrolidin-1-yl)pyridin-3-yl)-1H-indazole-3-carboxamide], the EC50 in assay [1] was 0.025 µM; in assay [2] it was more than 100 µM.
For `O=C(NC1CCCC1)c1ccc(NC(=O)c2n[nH]c3ccc(-c4cncc(CN5CCCCC5)c4)cc23)cn1` [compound 184, N-(6-(Cyclopentylcarbamoyl)pyridin-3-yl)-5-(5-(piperidin-1-ylmethyl)pyridin-3-yl)-1H-indazole-3-carboxamide] the same measures were 0.04 µM and more than 100 µM.
Regarding `Cc1cc(NC(=O)c2n[nH]c3ccc(-c4cncc(CN5CCCCC5)c4)cc23)cnc1N1CCC1` [compound 173, N-(6-(Azetidin-1-yl)-5-methylpyridin-3-yl)-5-(5-(piperidin-1-ylmethyl)pyridin-3-yl)-1H-indazole-3-carboxamide], the EC50 was 0.036 µM in assay [1] and more than 100 µM in assay [2].
For `CN1CCN(c2ncccc2NC(=O)c2n[nH]c3ccc(-c4cccnc4)cc23)CC1` [compound 11, N-(2-(4-Methylpiperazin-1-yl)pyridin-3-yl)-5-(pyridin-3-yl)-1H-indazole-3-carboxamide] the same measures were not below 10 µM and more than 100 µM.
In the same order, the values of `O=C(Nc1ccc(C(F)(F)F)nc1)c1n[nH]c2ccc(-c3cncc(NC(=O)C4CC4)c3)cc12` [compound 39, 5-(5-(Cyclopropanecarboxamido)pyridin-3-yl)-N-(6-(trifluoromethyl)pyridin-3-yl)-1H-indazole-3-carboxamide] are 0.065 µM and more than 100 µM.
For `O=C(Nc1cccnc1)c1n[nH]c2ccc(-c3cncc(F)c3)cc12` [compound 13, 5-(5-fluoropyridin-3-yl)-N-(pyridin-3-yl)-1H-indazole-3-carboxamide] the same measures were 1.25 µM and more than 100 µM.
With `O=C(Nc1ccc(N2CCCC2)nc1)c1n[nH]c2ccc(-c3cncc(N4CCOCC4)c3)cc12` [compound 187, 5-(5-Morpholinopyridin-3-yl)-N-(6-(pyrrolidin-1-yl)pyridin-3-yl)-1H-indazole-3-carboxamide], the EC50 in assay [1] was 0.215 µM; in assay [2], more than 100 µM.
For `CN1CCN(C(=O)c2n[nH]c3ccc(-c4cncc(CN5CCCCC5)c4)cc23)CC1` [compound 83, (4-Methylpiperazin-1-yl)(5-(5-(piperidin-1-ylmethyl)pyridin-3-yl)-1H-indazol-3-yl)methanone] the same measures were 2.5 to 3.4 µM and more than 100 µM.
Turning to `O=C(NC1CCCC1)c1ccc(NC(=O)c2n[nH]c3ccc(-c4cccnc4)cc23)cn1` [compound 181, N-(6-(Cyclopentylcarbamoyl)pyridin-3-yl)-5-(pyridin-3-yl)-1H-indazole-3-carboxamide], the values for the concentration for a half-maximal effect (EC50) in assay [1] and in assay [2] were 0.038 µM and more than 100 µM, respectively.
For the compound `O=C(Nc1cccnc1)c1n[nH]c2ccc(-c3cncc(NC(=O)N4CCOCC4)c3)cc12` [compound 32, N-(5-(3-(Pyridin-3-ylcarbamoyl)-1H-indazol-5-yl)pyridin-3-yl) morpholine-4-carboxamide], the EC50 is 1.25 µM in assay [1] and more than 100 µM in assay [2].
Regarding `CN(C)Cc1cncc(NC(=O)c2n[nH]c3ccc(-c4cncc(CN5CCCCC5)c4)cc23)c1` [compound 86, N-(5-((Dimethylamino)methyl)pyridin-3-yl)-5-(5-(piperidin-1-ylmethyl)pyridin-3-yl)-1H-indazole-3-carboxamide], the EC50 in assay [1] was 0.066 µM; in assay [2] it was 5.27 µM.
As for `O=C(Nc1cnccc1C(F)(F)F)c1n[nH]c2ccc(-c3cncc(CN4CCCCC4)c3)cc12` [compound 47, 5-(5-(Piperidin-1-ylmethyl)pyridin-3-yl)-N-(4-(trifluoromethyl)pyridin-3-yl)-1H-indazole-3-carboxamide], the values for the EC50 in assay [1] and in assay [2] were 0.071 µM and more than 100 µM, respectively.
For `CN(C)C(=O)Nc1cncc(-c2ccc3[nH]nc(C(=O)Nc4cccnc4)c3c2)c1` [compound 1, 5-(5-(3,3-dimethylureido)pyridin-3-yl)-N-(pyridin-3-yl)-1H-indazole-3-carboxamide] the same measures were 0.175 µM and more than 100 µM.
Take `O=C(Nc1ccnnc1)c1n[nH]c2ccc(-c3cncc(CN4CCCCC4)c3)cc12` [compound 75, 5-(5-(Piperidin-1-ylmethyl)pyridin-3-yl)-N-(pyridazin-4-yl)-1H-indazole-3-carboxamide]: the half-maximal effective concentration (EC50) came to 0.04 µM in assay [1] and 12.4 µM in assay [2].
In the case of `CN(C)CCN(C)c1ccc(NC(=O)c2n[nH]c3ccc(-c4cncc(CN5CCCCC5)c4)cc23)cn1` [compound 74, N-(6-((2-(Dimethylamino)ethyl)(methyl)amino)pyridin-3-yl)-5-(5-(piperidin-1-ylmethyl)pyridin-3-yl)-1H-indazole-3-carboxamide], the EC50 was 0.065 µM in assay [1] and 10.2 µM in assay [2].

As a reminder, the EC50 is the midpoint of the concentration-response curve. A higher EC50 goes with lower potency in that assay.

For the origin of these results see patent publication US10806726B2, “Methods of using indazole-3-carb oxamides and their use as Wnt/B-catenin signaling pathway inhibitors” (Samumed, LLC, priority 2016, dated 2020).
